Experimental data taken from patent publication US5834012A, “Lipid complexed topoisomerase I inhibitors” (Perez-Soler; Roman, priority 1995, dated 1998).
Where a name gives a salt, the structure may show the parent alone.

What was measured:
[1] = Lipids screened for complexation with CPT (fluorescent microscopy; % bound); format: physicochemical; conditions: for % bound to CPT / Crystals: Table 1; for Crystals: lipid alone with CPT, fluorescent microscopy
Source text: (§1) In order to prepare LC-CPT (a liposomal preparation containing CPT within spherical lipid vesicles) various individual lipids were screened for complexation with CPT. […] CPT crystals and lipid/CPT complexes of >0.4 microns can be visualized under a fluorescent microscope (since CPT fluoresces due to its rigid ring structure). […] Therefore, the better a lipid complexes with CPT the less CPT crystals are formed, and the more lipid/CPT complexes are formed.
Drug/lipid Complex Preparation. CPT was mixed in ratios of from 2:1 to 25:1 w/w lipid:drug in chloroform-methanol (8:1). For studies where CPT was radiolabeled, approximately 0.02 uCi/ml [^3 H] CPT was added to the preparation. Trace quantities of ^14 C labeled cholesterol was added to samples requiring lipid labeling. For small samples, the lipids were dried in 12×75 mm culture tubes under a stream of nitrogen gas. For large samples, a rotavapor (Buchi RE140, Switzerland) was used to dry lipids in a 100 to 1000 ml round bottom flasks. […] For liposomal CPT 0.9% Nace was used. Preparations were screened for lipid entrapment by light and fluorescent microscopy (Nikon Labophot-2, Japan). […]
Lipids of varying carbon chain length, charge, and saturation, alone or in different combinations, were empirically screened for their ability to form liposomes incorporating CPT by fluorescent microscopy.

[2] = Chromatographic evaluation of CPT in the liposome fraction; format: physicochemical; conditions: lipid used alone
Procedure: Chromatography. A 30 cm agarose 0.5M column is used to separate liposome-bound drug from free CPT. PBS is used as the mobile phase for all preparations. Twenty samples were collected in 3 mL aliquots for a total of 60 mLs. Fluorescence and scintigraphy were used to detect encapsulated and free drug. Fluorimetry. Aliquots of 20 μl from each collection tube were transferred to cuvets containing 2 ml methanol. Fluorimetry was performed as described by Hart et al. (Hart et al., 1969). Fluorescence was measured at an excitation wavelength of 370 nm and emission wavelength of 434 nm (Perkin-Elmer MPF44A, Norwalk, Conn., U.S.A.). Two ml of ethanol was used as a control for machine calibration.
Chromatographic evaluation confirmed that <5% of CPT was incorporated in the liposome fraction of the preparation, the rest presumably being solubilized or in small particles not detectable by fluorescence microscopy.
These observation led the present inventors to other negatively charged lipids. […] Chromatographic evaluation of these preparations confirmed again that <5% of CPT eluted with the liposome fraction, the rest of the drug eluting later in a large number of consecutive fractions. By differential centrifugation, the lipid-binding efficiency of cardiolipin was about 67% and that of DO-NGPE 97%. DO-NGPE-CPT was, therefore, selected for further biological and pharmacological studies.

[3] = Complexation with CPT / liposome formation by fluorescent microscopy; format: physicochemical
Source text: as §1
Drug/lipid Complex Preparation. CPT was mixed in ratios of from 2:1 to 25:1 w/w lipid:drug in chloroform-methanol (8:1). For studies where CPT was radiolabeled, approximately 0.02 uCi/ml [^3 H] CPT was added to the preparation. Trace quantities of ^14 C labeled cholesterol was added to samples requiring lipid labeling. For small samples, the lipids were dried in 12×75 mm culture tubes under a stream of nitrogen gas. For large samples, a rotavapor (Buchi RE140, Switzerland) was used to dry lipids in a 100 to 1000 ml round bottom flasks. The lipophilic film was then vortexed in a Touch Mixer Model 231 (Fisher Scientific, Fair Lawn, N.J., U.S.A.) for one minute in sterile phosphate buffered saline (pH 7.4). For liposomal CPT 0.9% Nace was used. Preparations were screened for lipid entrapment by light and fluorescent microscopy (Nikon Labophot-2, Japan).
To increase the cytotoxic effects of LC-CPT relative to CPT, lipid must surround (encapsulate) the CPT to protect it from inactivation. Since the cytotoxicity of LC-CPT was similar to that of the free drug, the CPT was not encapsulated by the lipid (DO-NGPE). Encapsulation (and concomitant protection from inactivation) can be accomplished by surrounding CPT in a liposome (a unilamellar or multilamellar structure). […] Therefore, LC-CPT appears to only contain enough lipid to form micellar aggregates of CPT or to form a hydrophobic scaffold for CPT-CPT aggregation.
The inventors attempted to protect the CPT from inactivation by surrounding the existing DO-NGPE:CPT complex with a liposome (Table 3) or by adding another lipid to DO-NGPE to form a liposome. […]

[4] = test system: human tumors; conditions: cited from earlier work
[5] = Hertzberg et al., 1989; cited from earlier work

Row | % bound to CPT [1] | Crystals [1] | SMILES | other results
1 | < 5% | yes | CCCCCCCCCCCCCC(=O)OC[C@H](COP(=O)(O)OCC(O)CO)OC(=O)CCCCCCCCCCCCC (mixture of isomers) [Dimyristoyl PG, 1,2-Dimyristoyl-sn-Glycero-3-[Phospho-rac-(1-glycerol)]] | –
2 | < 5% | no | CCCCCCCC/C=C\CCCCCCCC(=O)OC[C@H](COP(=O)(O)OCC(O)CO)OC(=O)CCCCCCC/C=C\CCCCCCCC (mixture of isomers) [Dioleoyl PG, 1,2-Dioleoyl-sn-Glycero-3-[Phospho-rac-(1-glycerol)]] | interaction with CPT (in words) [1]: lack of drug crystallization; CPT incorporated in / eluted with the liposome fraction [2]: < 5%
3 | < 5% | yes | CCCCCCCCCCCCCCCCCC(=O)OC[C@H](COP(=O)([O-])OCC[N+](C)(C)C)OC(=O)CCCCCCCCCCCCC [1-Stearoyl, 2-Myristdyl PC] | –
4 | < 5% | yes | CCCCCCCC/C=C\CCCCCCCC(=O)O[C@H](COC(=O)CCCCCCCCCCCCCCCCC)COP(=O)([O-])OCC[N+](C)(C)C [1-Stearoyl, 2-Oleoyl PC] | –
5 | – | – | CCCCCCCC/C=C\CCCCCCCC(=O)OC[C@H](COP(=O)(O)OCCN)OC(=O)CCCCCCC/C=C\CCCCCCCC [DOPE, 1,2-Dioleoyl-sn-Glycero-3-Phosphoethanolamine] | complexation with CPT / liposome formation / CPT crystals (in words) [3]: complex well with CPT
6 | – | – | CCCCCCCC/C=C\CCCCCCCC(=O)OCC(C[N+](C)(C)C)OC(=O)CCCCCCC/C=C\CCCCCCCC (stereo not shown) [DOTAP, 1,2-Dioleoyl-3-Trimethylammonium-Propane] | complexation with CPT / liposome formation / CPT crystals (in words) [3]: complex well with CPT
7 | – | – | CCCCCCCC/C=C/CCCCCCCC(=O)OC[C@H](COP(=O)([O-])OCC[N+](C)(C)C)OC(=O)CCCCCCC/C=C/CCCCCCCC [Dielaidoyl PC] | complexation with CPT / liposome formation / CPT crystals (in words) [3]: complex well with CPT
8 | – | – | CC[C@@](O)(C(=O)O)c1cc2n(c(=O)c1CO)Cc1cc3ccccc3nc1-2 [sodium salt of CPT, camptothecin sodium] | dose-limiting toxicity ([4]; clinical trials, early 1970's): dose-limiting leukopenia, cystitis, and gastroenteritis; clinical antitumor activity (in words) ([4]; intestinal tumors metastatic to the liver): demonstrated activity in human tumors; activity relative to closed lactone ring base (in words) [5]: significantly less active than the lipophilic base compound

Row | SMILES | % bound to CPT [1] | Crystals [1] | other results
9 | CCCCCC(=O)OC[C@H](COP(=O)([O-])OCC[N+](C)(C)C)OC(=O)CCCCC [Dicaproyl PC] | < 5% | yes | –
10 | CCCCCCCCCCCCCC(=O)OC[C@H](COP(=O)([O-])OCC[N+](C)(C)C)OC(=O)CCCCCCCCCCCCC [Dimyristoyl PC, 1,2-Dimyristoyl-sn-Glycero-3-Phosphocholine] | < 5% | yes | –
11 | CCCCCCCCCCCCCCCCCC(=O)OC[C@H](COP(=O)([O-])OCC[N+](C)(C)C)OC(=O)CCCCCCCCCCCCCCCCC [Distearoyl PC] | < 5% | yes | –
